“And” between values parts separate entries of the source, which are not always exact repeats. Identical values can stand only once.
Tests used:
[1] = target: T1, SCD1 (Homo sapiens, UniProt O00767); experiment: Growth inhibition of humanized yeast strain expressing SCD1 as sole desaturase; assay type: cell-based; conditions: for IC50 / SCD1 % Max Inhibition: humanized yeast strain expressing SCD1
T1 construct: host or cells: S. cerevisiae ole1Δ strain (W303 pdr1Δ pdr3Δ background), plasmid pRS316 with TDH3 promoter and CYC1 terminator
T1 sequence (O00767 1-359): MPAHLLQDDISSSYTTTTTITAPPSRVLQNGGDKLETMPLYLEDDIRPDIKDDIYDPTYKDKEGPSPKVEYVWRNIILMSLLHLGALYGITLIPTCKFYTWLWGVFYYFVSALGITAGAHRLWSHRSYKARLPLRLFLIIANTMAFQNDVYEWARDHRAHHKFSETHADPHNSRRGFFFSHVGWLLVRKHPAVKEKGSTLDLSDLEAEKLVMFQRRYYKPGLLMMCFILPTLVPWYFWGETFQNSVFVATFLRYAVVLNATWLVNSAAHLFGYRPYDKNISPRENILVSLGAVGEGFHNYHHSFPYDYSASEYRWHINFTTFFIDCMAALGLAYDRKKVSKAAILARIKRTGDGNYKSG
Summary of the method: (§1)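 Yeast ole1Δ strain (W303 pdr1Δ pdr3Δ background) carrying plasmid-borne Ole1, SCD1 or SCD5 as sole desaturase was grown in uracil-lacking media, pre-cultured in raffinose for 6 h, then seeded in galactose medium with compound in DMSO. Growth was read as OD600 after 30° C. incubation: 24 h for Ole1, 40 h for SCD1/SCD5.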

[2] = target: T2, Ole1 (Saccharomyces cerevisiae, UniProt P21147); experiment: Growth inhibition of yeast strain expressing Ole1 as sole desaturase; assay type: cell-based; conditions: for IC50 / OLE1 % Max Inhibition: yeast strain expressing Ole1 as sole desaturase
T2 construct: expressed in transfected cells; host or cells: S. cerevisiae ole1Δ strain (W303 pdr1Δ pdr3Δ background), plasmid pRS316 with TDH3 promoter and CYC1 terminator
T2 sequence (P21147 1-510): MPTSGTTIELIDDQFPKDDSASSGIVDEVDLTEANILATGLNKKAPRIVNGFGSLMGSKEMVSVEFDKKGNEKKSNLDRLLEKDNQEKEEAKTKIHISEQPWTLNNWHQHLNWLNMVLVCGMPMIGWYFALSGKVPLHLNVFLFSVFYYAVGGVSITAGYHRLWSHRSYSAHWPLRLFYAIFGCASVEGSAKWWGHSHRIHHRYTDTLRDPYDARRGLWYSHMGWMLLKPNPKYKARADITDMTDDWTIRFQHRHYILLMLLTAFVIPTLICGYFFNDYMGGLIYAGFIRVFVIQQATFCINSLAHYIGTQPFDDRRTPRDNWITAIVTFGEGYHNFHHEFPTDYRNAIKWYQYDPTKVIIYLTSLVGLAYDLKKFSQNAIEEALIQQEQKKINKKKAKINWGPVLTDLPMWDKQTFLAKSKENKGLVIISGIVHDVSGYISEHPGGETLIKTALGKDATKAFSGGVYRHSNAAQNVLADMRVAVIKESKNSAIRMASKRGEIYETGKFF
Summary of the method: as §1

[3] = target: T3, SCD5 (Homo sapiens, UniProt Q86SK9); experiment: Growth inhibition of humanized yeast strain expressing SCD5 as sole desaturase; assay type: cell-based; conditions: for IC50 / SCD5 % Max Inhibition: humanized yeast strain expressing SCD5
T3 construct: host or cells: S. cerevisiae ole1Δ strain (W303 pdr1Δ pdr3Δ background), plasmid pRS316 with TDH3 promoter and CYC1 terminator
T3 sequence (Q86SK9 1-330): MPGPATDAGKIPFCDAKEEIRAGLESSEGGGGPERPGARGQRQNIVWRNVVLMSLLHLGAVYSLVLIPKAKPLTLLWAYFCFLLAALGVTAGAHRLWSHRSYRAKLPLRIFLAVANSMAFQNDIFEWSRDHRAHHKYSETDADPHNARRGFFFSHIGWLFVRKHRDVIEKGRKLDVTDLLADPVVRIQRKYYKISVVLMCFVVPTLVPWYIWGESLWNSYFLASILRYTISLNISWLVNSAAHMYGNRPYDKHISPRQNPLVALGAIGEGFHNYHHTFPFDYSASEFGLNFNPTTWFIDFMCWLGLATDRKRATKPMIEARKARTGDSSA
Summary of the method: as §1

[4] = test system: yeast strains expressing the human α-synuclein; experiment: Yeast α-synuclein toxicity rescue assay (OD600 growth); conditions: 40 h; for EC50: read-out: α-Syn EC50; for Emax: read-out: α-Syn Emax

Compound | IC50 [1] | SCD1 % Max Inhibition [1] | IC50 [2] | OLE1 % Max Inhibition [2] | IC50 [3] | SCD5 % Max Inhibition [3] | EC50 [4] | Emax [4] | half-maximal inhibitory concentration (IC50) ([1]; SCD1 humanized strain, FIG. 6) | growth of yeast expressing OLE1 in presence of inhibitor ([2]; FIG. 6) | half-maximal inhibitory concentration (IC50) ([3]; SCD5 humanized strain, FIG. 6)
Cc1nnc(C)c2cc(-c3noc(C4CCN(C(=O)CNC(=O)c5ccccc5)CC4)n3)ccc12 [Compound 105] | > 45 µM | 41.38% | > 45 µM | 34.19% | > 45 µM | 13.93% | 3.18 µM | 391% |  |  | 
Cc1nn(C)c2cc(-c3noc(C4CCN(C(=O)C5CC(=O)N(c6ccccc6)C5)CC4)n3)cnc12 (centres unmarked) [Compound 138] | 37.3 µM | 54.49% | > 45 µM | 3.94% | > 45 µM | 4.57% | 1.28 µM | 353% |  |  | 
Cc1ccc(-c2noc(C3CCN(C(=O)C4CC(=O)N(c5ccc(C)c(C)c5)C4)CC3)n2)cc1 (centres unmarked) [compound 2] | > 45 µM |  | > 45 µM |  | > 45 µM |  | 8.57 µM | 80% |  |  | 
COc1ccc(-c2noc(C3CCN(CCNC(=O)c4ccccc4)CC3)n2)cc1OC [Compound 32] | > 45 µM | 84.16% | > 45 µM | 108.22% | > 45 µM | 80.17% | 9.88 µM | 41% |  |  | 
COc1ccnc(C(=O)NCC(=O)N2CCC(c3nc(-c4ccc5c(C)nn(C)c5c4)no3)CC2)c1 [Compound 150] | > 45 µM | 74.48% | > 45 µM | 5.16% | > 45 µM | 86.15% | 0.099 µM | 473% |  |  | 
CCOc1ncc(-c2noc(C3CCN(C(=O)C4CC(=O)N(c5ccccc5)C4)CC3)n2)cc1OC (centres unmarked) [Compound 130] | > 45 µM | 97.82% | > 45 µM | 2.75% | > 45 µM | 99.82% | 1.44 µM | 328% |  |  | 
CCOc1ncc(-c2noc(C3CCN(C(=O)CNC(=O)c4ccccc4)CC3)n2)cc1OC [Compound 132] | > 45 µM | 115.10% | > 45 µM | 7.45% | > 45 µM | 94.34% | 1.01 µM | 253% |  |  | 
Cc1nn(C)c2nc(-c3noc(C4CCN(C(=O)C5CC(=O)N(c6ccccc6)C5)CC4)n3)ccc12 (centres unmarked) [Compound 116] | > 45 µM | 71.12% | > 45 µM | 12.75% | > 45 µM | 8.35% | 9.04 µM | 345% |  |  | 
CCOc1ccc(-c2noc(N3CCC(C(=O)N4CCN(C)C(c5ccccc5)C4)CC3)n2)cc1OC (centres unmarked) [Compound 113] | 40.7 µM | 55.33% | > 45 µM | 5.55% | > 45 µM | 27.28% | 15.6 µM | 55% |  |  | 
Cc1nn(C)c2cc(-c3noc(C4CCN(C(=O)[C@H]5CC(=O)N(c6ccccc6)C5)CC4)n3)ccc12 [compound 90] | > 45 µM |  | > 45 µM |  | > 45 µM |  | 1.65 µM | 281% |  |  | 
COc1ccc(-c2noc(C3CCN(C(=O)c4ccc(C(C)C)cc4)CC3)n2)cc1OC [Compound 127] | > 45 µM | 66.46% | > 45 µM | 99.27% | > 45 µM | 88.59% | 7.42 µM | 349% |  |  | 
CCOc1ccc(-c2noc(C3CCN(C(=O)CN4Cc5ccccc5C4=O)CC3)n2)cc1OC [Compound 106] | > 45 µM | 78.19% | > 45 µM | 35.35% | > 45 µM | 71.22% | 0.1 µM | 415% |  |  | 
CCOc1ccc(-c2noc(C3CCN(C(=O)CNC(=O)c4ccccc4)CC3)n2)cc1Cl [compound 87] |  |  |  |  |  |  | 1.93 µM | 579% |  |  | 
Cc1nn(C)c2cc(-c3noc(N4CCN(C(=O)c5cc(F)ccc5C(F)(F)F)CC4)n3)ccc12 [Compound 293] | > 45 µM | 12.3% | 34.9 µM | 66.4% | > 45 µM | 11.9% |  |  |  |  | 
CCNCc1nc(-c2ccc3c(c2)N(CC)C(=O)CO3)no1 [Compound 493] |  | 68.84% | > 45 µM | 91.16% | 30.2 µM | 60.28% |  |  |  |  | 
Cc1nn(C)c2cc(-c3noc(N4CCN(C(=O)c5cccc(F)c5)CC4)n3)ccc12 [Compound 270] |  | 82.42% | 41.8 µM | 63.00% | > 45 µM | 12.30% |  |  |  |  | 
O=C(C1CC(=O)N(c2cccc(Cl)c2)C1)N1CCC(c2nc(N3CC4(COC4)C3)no2)CC1 (centres unmarked) [Compound 339] | > 45 µM | 56.1% | > 45 µM | 85.7% | > 45 µM | 75.4% |  |  |  |  | 
Cc1ncc2ccc(-c3noc(C4CCN(C(=O)CNC(=O)c5ccccc5)CC4)n3)cn12 [Compound 215] | > 45 µM | 88.23% | > 45 µM | 48.68% | > 45 µM | 78.96% |  |  |  |  | 
Cc1ccc(N2CC(C(=O)N3CCC(c4nc(-c5ccc6c(C)nn(C)c6c5)no4)CC3)CC2=O)nc1 (centres unmarked) [Compound 184] | > 45 µM | 86.33% and 50.65% | > 45 µM | 3.07% and 0.87% | > 45 µM | 2.41% and 11.92% |  |  |  |  | 
Cc1nnc(-c2ccc(N3CCC(Oc4ccccc4C(F)(F)F)CC3)nn2)s1 [MF-438, reference compound] |  |  |  |  |  |  |  |  | low nanomolar | resistant | low nanomolar
O=C(C1CC(=O)N(c2cccc(Cl)c2)C1)N1CCC(c2nc(N3CCC4(CC3)COC4)no2)CC1 (centres unmarked) [Compound 325] | > 45 µM | 73.7% | > 45 µM | 79.2% | > 45 µM | 67.2% |  |  |  |  | 
Cc1nn(C)c2cc(-c3noc(C4CCN(C(=O)CC(C)(C)C)CC4)n3)ccc12 [Compound 263] |  | 18.81% | > 45 µM | 8.71% | > 45 µM | 7.20% |  |  |  |  | 
Cc1nn(C)c2cc(-c3nsc(C4CCN(C(=O)CNC(=O)c5ccccn5)CC4)n3)ccc12 [Compound 232] | > 45 µM | 81.04% | > 45 µM | 4.20% | 41.1 µM | 51.17% |  |  |  |  | 
Cc1nn(C)c2cc(-c3noc(C4CCN(C(=O)C5CC(=O)N(CC6COC6)C5)CC4)n3)ccc12 (centres unmarked) [Compound 255] | > 45 µM | 72.70% | > 45 µM | 96.25% | 30 µM | 64.50% |  |  |  |  | 

From patent US11873298B2, “Compounds and uses thereof” (JANSSEN PHARMACEUTICA NV, priority 2017, dated 2024)
